The results in this text go back to patent US20170066795A1, “SOLID PRODRUG FORMS OF 2'-CHLORO-2'-METHYL URIDINE FOR HCV” (IDENIX PHARMACEUTICALS LLC, priority 2014, published 2017).

Holding throughout (assay type): physicochemical
Data set [1] can be described thus: Solubility screen with crystalline material (Form I). As to the method: An extensive range of experiments were carried out using either Compound I crystalline Form I or amorphous Compound I as the input material. A set of 32 solvents with diverse properties (including 3 solvent:water mixtures 95:5 v:v) were selected. All solvents were used for the solubility screen but for the subsequent screens a selection of these solvents were used depending on the solubility.
Compound I Form I was weighed into 2 mL vials and treated with increasing amounts of solvent. Solvent was added in 10 or 20 volume portions until the solid dissolved or a maximum volume of 2 mL (80 volumes) had been reached. After each addition of solvent the samples were warmed to 50° C. […] After 3 days of maturation samples were equilibrated to room temperature and small amounts of each sample were filtered through glass frits under vacuum and were analyzed by XRPD. […]
Solutions were stirred at 50° C. for 1 hour then were cooled to 5° C. using a linear cooling rate of 0.1° C./min. […] Observations were made and any solids were analyzed by XRPD as above and solutions were cooled in the freezer for 3 days. Solids were then analyzed by XRPD and samples that remained solutions were left to evaporate slowly through loosened lids at ambient conditions. When solids were produced they were analyzed by XRPD.

Data set [2] can be described thus: Static stability of amorphous Compound I (ambient conditions; 40° C./75% RH). As to the method: Full characterization was carried out on a 100 mg scale test batch (lyophilised from 100% t-butanol).
The nature of data set [3]: Kinetic solubility of amorphous Compound I. To be noted: kinetic from dmso stock; stated in embodiment text only.

SMILES strings stand for the structures. Values after ≈ are worked out from the molar mass of the structure shown. “Also recorded” adds a separate entry of the source.

For the molecule `CC(C)OC(=O)[C@@H](C)N[P@@](=O)(OC[C@H]1O[C@@H](n2ccc(=O)[nH]c2=O)[C@](C)(Cl)[C@@H]1O)Oc1ccccc1` [Compound I crystalline Form I], the “solubility in most primary alcohols” value in data set [1] is recorded as “highly soluble”.

Take `CC(C)OC(=O)[C@@H](C)N[P@@](=O)(OC[C@H]1O[C@@H](n2ccc(=O)[nH]c2=O)[C@](C)(Cl)[C@@H]1O)Oc1ccccc1` [Amorphous Compound I]: the “Static Stability at 40° C./75% RH: time to deliquesce to an oil/gum” value in data set [2] (40° C./75% RH) is on record as “Deliquesces to an oil/gum in <1 hour,”. Besides, the “Static Stability at 40° C./75% RH: solid form” value in data set [2] (40° C./75% RH, 1, 15 and 44 days) was “remains amorphous after 1 day,; also recorded: after 15 days amorphous but hint of a peak at 6.5 °20; also recorded: after 44 days remains amorphous except for peak at 6.5 °20”. For the same molecule, the “Static Stability at ambient conditions” value in data set [2] (solid form on storage, lyophilised batch) is “Remains amorphous after 22 days”. The molecule also displayed a kinetic solubility in data set [3] of approximately 2000 µg/mL (≈ 3.66 mM).

Usually solubility (kinetic) stands for the concentration staying in solution when a stock, usually in DMSO, is diluted into the medium.
